Columns and labels:
[1] = Metabolic Stability in mouse liver microsome assessed as half life at […] measured upto 60 mins by HPLC-MS/MS analysis; assay type: ADME; details: liver microsomes
[2] = Metabolic Stability in rat liver microsome assessed as microsomal intrinsic clearance at […] measured upto 60 mins by HPLC-MS/MS analysis; assay type: ADME; details: liver microsomes, read-out: CLH
[3] = Metabolic Stability in mouse liver microsome assessed as intrinsic clearance at […] measured upto 60 mins by HPLC-MS/MS analysis; assay type: ADME; details: microsomes, 1 h
[4] = Metabolic Stability in rat liver microsome assessed as intrinsic clearance at […] measured upto 60 mins by HPLC-MS/MS analysis; assay type: ADME; details: microsomes, 1 h
[5] = Metabolic Stability in dog liver microsome assessed as intrinsic clearance at […] measured upto 60 mins by HPLC-MS/MS analysis; assay type: ADME, Canis lupus familiaris; details: microsomes, 1 h
[6] = target: T1, Nuclear receptor ROR-alpha (Homo sapiens, UniProt P35398); assay: Agonist activity at human Gal4-fused RORalpha expressed in HEK293T cells assessed as luciferase activity incubated for 16 to 20 hrs by Luciferase reporter gene assay; assay type: cell-based
T1 sequence (P35398 whole entry): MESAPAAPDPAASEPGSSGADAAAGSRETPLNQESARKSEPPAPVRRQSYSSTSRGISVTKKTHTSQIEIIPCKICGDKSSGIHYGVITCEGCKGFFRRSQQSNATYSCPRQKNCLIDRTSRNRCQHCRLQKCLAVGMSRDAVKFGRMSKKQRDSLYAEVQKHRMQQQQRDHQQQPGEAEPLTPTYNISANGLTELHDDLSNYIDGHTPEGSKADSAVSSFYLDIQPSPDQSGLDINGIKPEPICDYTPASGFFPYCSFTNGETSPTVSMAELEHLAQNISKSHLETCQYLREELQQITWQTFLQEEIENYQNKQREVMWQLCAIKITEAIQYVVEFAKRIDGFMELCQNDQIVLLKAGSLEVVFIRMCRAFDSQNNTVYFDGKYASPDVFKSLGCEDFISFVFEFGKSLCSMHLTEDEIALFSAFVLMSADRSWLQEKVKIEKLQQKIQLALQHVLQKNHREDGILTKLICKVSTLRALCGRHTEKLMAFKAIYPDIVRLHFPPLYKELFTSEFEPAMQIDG

[7] = target: T2, Nuclear receptor ROR-beta (Homo sapiens, UniProt Q92753); assay: Agonist activity at human Gal4-fused RORbeta expressed in HEK293T cells assessed as luciferase activity incubated for 16 to 20 hrs by Luciferase reporter gene assay; assay type: cell-based
T2 sequence (Q92753 whole entry): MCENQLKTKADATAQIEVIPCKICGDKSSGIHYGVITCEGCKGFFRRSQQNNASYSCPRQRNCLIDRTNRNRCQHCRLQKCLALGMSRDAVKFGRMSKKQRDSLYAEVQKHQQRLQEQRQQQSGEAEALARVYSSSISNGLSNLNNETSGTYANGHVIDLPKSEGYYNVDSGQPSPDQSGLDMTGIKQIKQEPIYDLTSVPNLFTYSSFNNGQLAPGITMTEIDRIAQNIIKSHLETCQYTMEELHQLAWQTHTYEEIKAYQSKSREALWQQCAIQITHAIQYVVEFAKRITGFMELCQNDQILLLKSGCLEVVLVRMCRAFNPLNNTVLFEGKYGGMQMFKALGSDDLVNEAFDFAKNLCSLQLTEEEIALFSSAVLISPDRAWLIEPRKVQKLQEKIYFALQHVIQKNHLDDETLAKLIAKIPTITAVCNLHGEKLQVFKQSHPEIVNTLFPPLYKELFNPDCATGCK

[8] = Volume of distribution at steady state in CD-1 mouse at 1 mg/kg,iv administration measured after 24 hrs by LC-MS/MS analysis; assay type: ADME, organism-based; details: in vivo
[9] = Half life in CD-1 mouse at 1 mg/kg,iv administration measured after 24 hrs by LC-MS/MS analysis; assay type: ADME, organism-based; details: in vivo
[10] = Cmax in CD-1 mouse at 5 mg/kg,po administration measured after 24 hrs by LC-MS/MS analysis; assay type: ADME, organism-based; parameters: dose 5 mg/kg, time 24 hrs, route po; details: in vivo
[11] = AUC(infinity) in CD-1 mouse at 5 mg/kg,po administration measured after 24 hrs by LC-MS/MS analysis; assay type: ADME, organism-based; parameters: dose 5 mg/kg, time 24 hrs, route po; details: in vivo
[12] = Half life in CD-1 mouse at 5 mg/kg,po administration measured after 24 hrs by LC-MS/MS analysis; assay type: ADME, organism-based; details: in vivo
[13] = Oral bioavailability in CD-1 mouse at 5 mg/kg administration measured after 24 hrs by LC-MS/MS analysis; assay type: ADME, organism-based; details: in vivo
[14] = AUC(infinity) in rat at 1 mg/kg,iv administration measured after 24 hrs by LC-MS/MS analysis; assay type: ADME, organism-based; parameters: dose 1 mg/kg, time 24 hrs, route iv; details: in vivo
[15] = Cmax in rat at 5 mg/kg,po administration measured after 24 hrs by LC-MS/MS analysis; assay type: ADME, organism-based; parameters: time 24 hrs, dose 5 mg/kg, route po; details: in vivo
[16] = AUC(infinity) in rat at 5 mg/kg,po administration measured after 24 hrs by LC-MS/MS analysis; assay type: ADME, organism-based; parameters: time 24 hrs, dose 5 mg/kg, route po; details: in vivo
[17] = Half life in rat at 5 mg/kg,po administration measured after 24 hrs by LC-MS/MS analysis; assay type: ADME, organism-based; details: in vivo
[18] = Oral bioavailability in rat at 5 mg/kg administration measured after 24 hrs by LC-MS/MS analysis; assay type: ADME, organism-based; details: in vivo
[19] = Clearance in dog at 1 mg/kg,iv administration measured after 24 hrs by LC-MS/MS analysis; assay type: ADME, organism-based, Canis lupus familiaris; details: in vivo
[20] = Half life in dog at 1 mg/kg,iv administration measured after 24 hrs by LC-MS/MS analysis; assay type: ADME, organism-based, Canis lupus familiaris; details: in vivo
[21] = Cmax in dog at 2 mg/kg,po administration measured after 24 hrs by LC-MS/MS analysis; assay type: ADME, organism-based, Canis lupus familiaris; parameters: dose 2 mg/kg, time 24 hrs, route po; details: in vivo
[22] = AUC(infinity) in dog at 2 mg/kg,po administration measured after 24 hrs by LC-MS/MS analysis; assay type: ADME, organism-based, Canis lupus familiaris; parameters: dose 2 mg/kg, time 24 hrs, route po; details: in vivo
[23] = Oral bioavailability in dog at 2 mg/kg administration measured after 24 hrs by LC-MS/MS analysis; assay type: ADME, organism-based, Canis lupus familiaris; details: in vivo
[24] = target: Voltage-gated inwardly rectifying potassium channel KCNH2 (Homo sapiens, UniProt Q12809); assay: Inhibition of hERG potassium channel by patch clamp assay; assay type: toxicity
Voltage-gated inwardly rectifying potassium channel KCNH2, sequence (Q12809 whole entry): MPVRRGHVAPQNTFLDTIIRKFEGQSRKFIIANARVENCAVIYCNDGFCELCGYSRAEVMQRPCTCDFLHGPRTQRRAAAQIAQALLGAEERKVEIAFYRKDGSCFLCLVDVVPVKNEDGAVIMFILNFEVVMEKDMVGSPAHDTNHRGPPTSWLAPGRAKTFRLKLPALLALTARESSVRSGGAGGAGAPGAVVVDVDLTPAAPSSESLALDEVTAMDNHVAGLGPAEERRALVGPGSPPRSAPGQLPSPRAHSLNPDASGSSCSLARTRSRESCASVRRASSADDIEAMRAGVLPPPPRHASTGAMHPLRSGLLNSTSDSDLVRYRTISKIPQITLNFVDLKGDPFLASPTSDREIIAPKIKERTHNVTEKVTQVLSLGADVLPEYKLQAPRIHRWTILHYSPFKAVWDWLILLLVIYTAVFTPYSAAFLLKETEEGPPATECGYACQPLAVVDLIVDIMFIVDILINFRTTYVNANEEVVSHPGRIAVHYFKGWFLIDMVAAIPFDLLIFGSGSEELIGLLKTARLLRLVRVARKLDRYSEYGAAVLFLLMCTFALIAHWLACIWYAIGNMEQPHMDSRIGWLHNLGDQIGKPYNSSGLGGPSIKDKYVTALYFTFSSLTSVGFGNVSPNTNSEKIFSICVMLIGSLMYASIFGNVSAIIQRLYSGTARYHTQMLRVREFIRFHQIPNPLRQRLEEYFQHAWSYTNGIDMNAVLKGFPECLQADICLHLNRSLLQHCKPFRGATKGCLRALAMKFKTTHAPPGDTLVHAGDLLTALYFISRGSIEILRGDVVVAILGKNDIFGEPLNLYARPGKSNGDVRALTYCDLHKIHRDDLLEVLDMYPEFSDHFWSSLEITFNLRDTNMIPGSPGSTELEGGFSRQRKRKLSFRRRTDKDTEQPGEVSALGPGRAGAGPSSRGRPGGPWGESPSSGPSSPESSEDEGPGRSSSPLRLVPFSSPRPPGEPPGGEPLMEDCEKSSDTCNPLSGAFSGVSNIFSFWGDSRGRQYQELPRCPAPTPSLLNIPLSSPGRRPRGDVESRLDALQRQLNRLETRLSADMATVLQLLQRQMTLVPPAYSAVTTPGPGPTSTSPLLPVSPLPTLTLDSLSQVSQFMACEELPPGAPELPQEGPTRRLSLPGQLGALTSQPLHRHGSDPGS

B16-F10 [25] = assay: Antitumor activity against mouse B16-F10 cells xenografted in C57BL/6 mouse assessed as tumor growth inhibition at 50 mg/kg,ip administrated on day 7 for 8 days relative to control; assay type: functional; details: B16-F10, 192 h, time 8 day, read-out: TGI
B16-F10 [26] = assay: Antitumor activity against mouse B16-F10 cells xenografted in C57BL/6 mouse assessed as tumor growth inhibition at 100 mg/kg,ip administrated on day 7 for 8 days relative to control; assay type: functional; details: B16-F10, 192 h, time 8 day, read-out: TGI
[27] = Antitumor activity against mouse Lung adenocarcinoma cell line xenografted in C57BL/6 mouse assessed as tumor growth inhibition at 100 mg/kg,po administrated on day 7 for 12 days relative to control; assay type: functional; details: 288 h, time 12 day, read-out: TGI
[28] = Toxicity against C57BL/6 mouse xenografted with mouse Lung adenocarcinoma cell line assessed as change in body weight at 25 mg/kg,ip administrated on day 7 for 12 days; assay type: organism-based; details: in vivo, 288 h, time 12 day
[29] = Toxicity against C57BL/6 mouse xenografted with mouse Lung adenocarcinoma cell line assessed as change in body weight at 50 mg/kg,ip administrated on day 7 for 12 days; assay type: organism-based; details: in vivo, 288 h, time 12 day

SMILES: CCS(=O)(=O)c1ccc(CC(=O)Nc2cc(Cl)c(-c3ccc(OC(C)C)c(C#N)c3)c(Cl)c2)cc1
- half-life [1]: > 2.42 h
- microsomal CLint [2]: < 9.6 µL/min/mg
- CLH [3]: < 38 µL/min/mg
- CLH [4]: < 17.3 µL/min/mg
- CLH [5]: < 13.8 µL/min/mg
- EC50 [6]: > 10 µM
- EC50 [7]: > 10 µM
- Vdss [8]: 2 L/kg
- t1/2 [9]: 6.3 h
- Cmax [10]: 1810 ng/mL
- AUC(0-inf) [11]: 20600 ng·h/mL
- half-life [12]: 6 h
- bioavailability [13]: 90.3%
- AUC(0-inf) [14]: 5410 ng·h/mL
- Cmax [15]: 503 ng/mL
- AUC(0-inf) [16]: 10600 ng·h/mL
- half-life [17]: 11.4 h
- bioavailability [18]: 39.4%
- clearance [19]: 0.64 mL/min/kg
- half-life [20]: 46.5 h
- Cmax [21]: 518 ng/mL
- AUC(0-inf) [22]: 33000 ng·h/mL
- bioavailability [23]: 52.2%
- IC50 [24]: > 10 µM
- inhibition in vivo at 50 mg/kg (B16-F10 [25]): 54.7%
- inhibition in vivo at 100 mg/kg (B16-F10 [26]): 77.9%
- inhibition in vivo at 100 mg/kg [27]: 49.8%
- Activity [28]: Non-Toxic
- Activity [29]: Non-Toxic

Reference: ChEMBL document CHEMBL5375953, “Discovery of Biaryl Amide Derivatives as Potent, Selective, and Orally Bioavailable RORγt Agonists for Cancer Immunotherapy” (J Med Chem, 2023)
